Assay results published in patent publication US20050272677A1, “Delivery of a substance to a pre-determined site” (priority 2002, published 2005).
Like-named read-outs stand apart in the source and are kept apart here.

What was measured:
[1] = Gelation in the presence of surfactants and polymeric micelles; assay type: physicochemical; design: key: G = gel; C = crystalline; G^a: ^a= not stable
[2] = Gelation experiment (gel formation in solvents); assay type: physicochemical
Protocol: To obtain a gel or to thicken the solvent, the compound is mixed with the required solvent or a mixture of solvents in an amount between 0.01 and 50 wt. %, based on the weight of the composition. Typically, the dissolution of the components will be performed by heating (in some cases it may be helpful to homogenize the components, e.g., vortex) them together at temperatures of 20° C. to 200° C., preferably 50° C. to 150° C. Cooling these hot solutions to a preferred temperature in the range of −20° C. to 100° C., preferably 4° C. to 100° C. affords the gel or thickened solvent. […] In an alternative embodiment, the gelling agent is first dissolved in a polar or apolar solvent followed by the addition of another solvent or solvent mixture, thereby causing gelation to take place.
It will be understood that the use of the present gelling agents or thickeners to prepare a gel or to thicken a composition is also encompassed by the invention. As is well-known, gelling behavior of compounds or compositions is highly unpredictable. […] Preferably, the gelling phenomenon is thermoreversible.
In a typical gelation experiment, a carefully weighed amount of the dithienylcyclopentene derivative under investigation and 1 ml of the solvent are placed in a test tube, which is sealed and then heated until the compound is dissolved. The solution is allowed to cool to room temperature. […] The gelation process could be followed by UV-vis and CD spectroscopy as depicted in FIG. 58. At low concentrations (0.35 mM), compound D is dissolved in toluene. […] Increasing the concentration to 1.8 mM causes gelation of the solvent, which is accompanied by a change of the UV-visible spectrum, together with the appearance of a strong CD signal at 323 nm (FIG. 58, panels (a) and (c)). Similar changes in the UV-vis and CD spectrum are observed upon gelation of the 1.8 mM solution of D in toluene by cooling to a temperature below the sol-gel phase transition (from here on, referred to as gel(o)). From a plot of the increase of the CD signal versus the temperature, the sol-gel phase transition temperature of gel(o) was determined to be 29° C. for a 1.8 mM solution of D in toluene.

[3] = pH as stimulus for gel-to-sol and sol-to-gel transitions; assay type: physicochemical
Excerpt: Addition of base to a gel of 1 led to a decrease in melting temperature of the gel. Above pH>4.06, gelation was no longer observed (reversible process; see FIG. 50).
Compound 15 can gelate water and undergoes a sol-to-gel transition around pH=4.93 at room temperature (for a 0.5 wt % gel).

[4] = Gelation in the presence of surfactants and polymeric micelles; assay type: physicochemical; design: key: g = gel; i = insoluble; p = precipitate; sol = soluble
[5] = In vivo delivery of luciferase DNA complexed with Sunfish amphiphiles; design: species or system mouse; conditions: for gene expression (Luciferase) after intravenous injection of complexed DNA: 24 hours, efficiency order SF-46>SF-36>SF-6>SF-30>SF-63
Protocol: Sunfish (SF) amphiphiles were tested and compared to DOTAP, a commercially available amphiphile (Avanti Polar Lipids). The used plasmid DNA codes for Luciferase, which is expressed upon transfection. Luciferase activity represents the efficiency of transfection. Liposomes were prepared by drying the Sunfish amphiphiles or DOTAP in glass tubes under a nitrogen flow followed by being under vacuum for one hour. The lipid film was resuspended in 20% sucrose by mixing and warming up for five minutes to 60° C. in a water bath. The liposomal suspension was then sonicated for three minutes. For lipoplexes formation, plasmid DNA (30 μg/mouse) diluted in 20% sucrose was added to the liposomes (450 nmol/mouse) under mixing. The lipoplexes were allowed to rest at room temperature for […] and were intravenously injected (150 μl) in male BALB/c mice. Organs (lungs, heart, liver, spleen and kidneys) were collected 24 hours after injection for analysis. Luciferase activity was measured in homogenates of the different organs and related to a standard curve obtained with purified recombinant Luciferase.

[6] = Release of quinolines from DBC gels by UV-Vis spectroscopy; assay type: physicochemical; conditions: into 1 mL PBS pH 7.4, initial 0.001M
Excerpt: Entrapment of 8-aminoquinoline and 2-hydroxyquinoline (FIG. 61) was achieved by adding a PBS (phosphate-buffered saline) pH 7.4 solution of the quinoline of interest to X mg of DBC (dibenzoyl cystine); X=2, 3.5, 5 or 10, depending on the weight percentage (wt %) of gelator desired. The sample was then heated in a closed vial until complete dissolution of DBC was observed and subsequently allowed to cool to room temperature where gelation of the sample and, thus, entrapment of the quinolines in the gel occured.
After 24 hours, percentages of 8-aminoquinoline and 2-hydroxyquinoline released from DBC gels of different weight percentages into 1mL of PBS solution at pH 7.4 in contact with the gel, were measured by UV-Vis spectroscopy and are reported in Table J. The initial quinoline concentration in the gel was 0.001M. The error on each percentage is ±4%.

[7] = tested on: pB104 strain (MscL null E. coli); assay: Growth assay of MscL mutants on agar plates with or without IPTG; assay type: cell-based; design: key: ++++: growth equal to cells expressing wild-type MscL; growth is indicated by ++++ to −; growth is indicated by ++++ to −; growth is indicated by ++++ to −; −: an absence of growth; conditions: pB104 with Lac-inducible plasmid
Protocol: The constructs of the MscL-6His mutants were constructed using standard molecular biology techniques. The mutants were tested in the pB104 strain (MscL null E. coli) by a growth assay on agar plates with or without IPTG (K. Yoshimura et al., 1999, Biophys. J. 77:1960-1972).
The first phenotype (++) grows like the single G22S mutant.

In the case of CSCC[C@H](NC(=O)[C@H]1C[C@@H](C(=O)N[C@@H](CCSC)C(=O)O)C[C@@H](C(=O)N[C@@H](CCSC)C(=O)O)C1)C(=O)O [gelator 1, CHexAmMetOH], the Gelation properties ([1]; CTAB < CMC, * pH reversible gelation) is reported as “C”, the Gelation properties ([1]; CTAB < CMC, ** pH reversible then thermoreversible gelation) is reported as “C” and the Gelation properties ([1]; CTAB > CMC, * pH reversible gelation) is reported as “C”. For the same molecule, the Gelation properties ([1]; CTAB > CMC, ** pH reversible then thermoreversible gelation) was “C”, the Gelation properties ([1]; Lactose der. < CMC, * pH reversible gelation) was “G” and the Gelation properties ([1]; Lactose der. < CMC, ** pH reversible then thermoreversible gelation) was “G”. For the same molecule, the Gelation properties ([1]; Lactose der. > CMC, * pH reversible gelation) was “G”, the Gelation properties ([1]; Lactose der. > CMC, ** pH reversible then thermoreversible gelation) was “G” and the Gelation properties ([1]; Nonionic (Lactose der.) < CMC) was “G”. The Gelation properties ([1]; Nonionic (Lactose der.) > CMC) was “G”, the Gelation properties ([1]; SDS < CMC, * pH reversible gelation) was “G” and the Gelation properties ([1]; SDS < CMC, ** pH reversible then thermoreversible gelation) was “G”. For the same molecule, the Gelation properties ([1]; SDS > CMC, * pH reversible gelation) was “G”, the Gelation properties ([1]; SDS > CMC, ** pH reversible then thermoreversible gelation) was “G” and the Gelation properties ([1]; anionic (SDS) < CMC) was “G”. The Gelation properties ([1]; anionic (SDS) > CMC) was “G”, the Gelation properties ([1]; cationic (CTAB) < CMC) was “C” and the Gelation properties ([1]; cationic (CTAB) > CMC) was “C”. For the same molecule, the solvents gelated [2] was “water and lower alcohols”, the “pH above which gelation was no longer observed” value ([3]; addition of base, reversible) was 4.06 and the Gelation properties ([4]; Pluronic P 105, 5 mg · ml^−1) was “p”. The Gelation properties ([4]; Pluronic P 105, 5 mg · ml^−1, * pH reversible gelation) was “g”, the Gelation properties ([4]; Pluronic P 105, 5 mg · ml^−1, ** pH reversible then thermoreversible gelation) was “p” and the Gelation properties ([4]; Pluronic P 105, 100 mg · ml^−1) was “p”. The Gelation properties ([4]; Pluronic P 105, 100 mg · ml^−1, * pH reversible gelation) was “g” and the Gelation properties ([4]; Pluronic P 105, 100 mg · ml^−1, ** pH reversible then thermoreversible gelation) was “p”.

For COC(=O)[C@H](CCSC)NC(=O)[C@H]1C[C@@H](C(=O)N[C@@H](CCSC)C(=O)OC)C[C@@H](C(=O)N[C@@H](CCSC)C(=O)OC)C1 [9a, CHexAmMetOMe], the solvents gelated [2] was “both organic solvents and water” and the “effect of sufficient amounts of base on the gel” value (“effect” for short) [3] was “causes dissolution of these gels”.

In the case of CCCCCCCC/C=C\CCCCCCCCCc1cc[n+](CCCCCCCC/C=C\CCCCCCCC)cc1.[Cl-] [SF-6, 1-(9′-cis-octadecenyl)-4-(10″-cis-nonadecenyl)pyridinium Chloride], the “gene expression (Luciferase) after intravenous injection of complexed DNA” value (“gene expression (Luciferase)” for short) [5] is reported as “resulted in gene expression in the lungs”.

For Oc1ccc2ccccc2n1 [2-hydroxyquinoline], the “percentage released from DBC gel after 24 hours” value (“percentage released from DBC gel” for short) ([6]; DBC 0.35 wt %) was 38%, the “percentage released from DBC gel” value ([6]; DBC 0.5 wt %) was 37% and the “percentage released from DBC gel” value ([6]; DBC 1.0 wt %) was 36%.

In the case of CCCCCCCC/C=C\CCCCCCCCCc1cc[n+](CCCCCCCCCCCCCCCCCC)cc1 [SF-46, 1-stearyl-4-(10′-cis-nonadecenyl)-pyridinium Chloride], the “Luciferase activity in the lungs compared to DOTAP” value ([5]; 24 hours after i.v. injection) is reported as “five times higher” and the “gene expression (Luciferase)” value [5] is reported as “resulted in gene expression in the lungs”.

In the case of CHexAmAspOMe [gelator 8], the “effect” value [3] is reported as “causes dissolution of these gels”.

In the case of Nc1cccc2cccnc12 [8-aminoquinoline], the “percentage released from DBC gel” value ([6]; DBC 0.35 wt %) is reported as 15%, the “percentage released from DBC gel” value ([6]; DBC 0.5 wt %) is reported as 12% and the “percentage released from DBC gel” value ([6]; DBC 1.0 wt %) is reported as 10%.

For CCCCCCCCCCCCCCCC[n+]1ccc(CCCCCCCCCCCCC)cc1.[Cl-] [SF-36, 1-hexadecyl-4-tridecyl-pyridinium Chloride], the “gene expression (Luciferase)” value [5] was “resulted in gene expression in the lungs”.

In the case of O=C(NCCOCCO)[C@H](Cc1ccccc1)NC(=O)[C@H]1C[C@@H](C(=O)N[C@@H](Cc2ccccc2)C(=O)NCCOCCO)C[C@@H](C(=O)N[C@@H](Cc2ccccc2)C(=O)NCCOCCO)C1 [gelator 4, CHexAmPheNHCH2CH2OCH2CH2OH], the Gelation properties ([1]; Nonionic (Lactose der.) < CMC) is reported as “G”, the Gelation properties ([1]; Nonionic (Lactose der.) > CMC) is reported as “G” and the Gelation properties ([1]; anionic (SDS) < CMC) is reported as “G”. For the same molecule, the Gelation properties ([1]; anionic (SDS) > CMC) was “G”, the Gelation properties ([1]; cationic (CTAB) < CMC) was “G” and the Gelation properties ([1]; cationic (CTAB) > CMC) was “G”. For the same molecule, the solvents gelated [2] was “water and lower alcohols”, the Gelation properties ([4]; Pluronic P 105, 5 mg · ml^−1) was “p” and the Gelation properties ([4]; Pluronic P 105, 100 mg · ml^−1) was “p”.

With CSCC[C@H](NC(=O)[C@H]1C[C@@H](C(=O)N[C@@H](CCSC)C(=O)NCCc2c[nH]cn2)C[C@@H](C(=O)N[C@@H](CCSC)C(=O)NCCc2c[nH]cn2)C1)C(=O)NCCc1c[nH]cn1 [gelator 15, CHexAmMetHista] the solvents gelated ([2]; listed as 15) was “water”, the solvents gelated ([2]; listed as CHex-Am-Met-Hista) was “water and lower alcohols” and the “pH of sol-to-gel transition” value [3] was roughly 4.93.

For CHexAmMetAmCH2Pyr [gelator 6], the solvents gelated [2] was “water:alcohol mixtures (1:1)”, the state ([2]; DMSO) was “soluble” and the state ([2]; EtOH) was “soluble”. For the same molecule, the state ([2]; H2O/EtOH (1:1), weight % 1.0, 0.5, 0.25) was “gel”, the state ([2]; H2O/EtOH (2:1), weight % 0.16) was “gel” and the state ([2]; H2O/EtOH (4:1), weight % 1.0, 0.5) was “gel (turbid)”. For the same molecule, the state ([2]; H2O/MeOH (1:1), weight % 0.5, 0.25) was “gel”, the state ([2]; H2O/MeOH (4:1), weight % 1.0, 0.5) was “gel (turbid)” and the state ([2]; H2O, weight % 0.05) was “insoluble”. The state ([2]; MeOH) was “soluble” and the “pH of sol-to-gel transition” value ([3]; room temperature, 0.5 wt % in MeOH:H2O=1:1) was roughly 4.47.

In the case of CHexAmPheGlyOH [gelator 3], the “effect” value [3] is reported as “causes dissolution of these gels”.

For CCCCCCCC/C=C\CCCCCCCC[n+]1ccc(CCCCCCCCCCCCC)cc1.[Cl-] [SF-30, 1-(9′-cis-octadecenyl)-4-tridecyl-pyridinium Chloride], the “gene expression (Luciferase)” value [5] was “resulted in gene expression in the lungs”.

B1: R13H (protein, UniProt P0A742 1-136, looked up, variant R13H)
Large-conductance …: MSIIKEFREFAMHGNVVDLAVGVIIGAAFGKIVSSLVADIIMPPLGLLIGGIDFKQFAVTLRDAQGDIPAVVMHYGVFIQNVFDFLIVAFAIFMAIKLINKLNRKKEEPAAAPAPTKEEVLLTEIRDLLKEQNNRS
With B1 the “Growth on agar plates +IPTG” value ([7]; with IPTG) was “+++” and the “Growth on agar plates −IPTG” value ([7]; without IPTG) was “++++”.
